Test results from patent US20080182842A1, “L-alanine derivatives as a5beta1 antagonists” (ASTRAZENECA AB, priority 2007, published 2008).

biological target: α5β1 integrin (Homo sapiens, UniProt P05556+P08648); assay: In vitro binding assay (a): inhibition of binding of α5β1 integrin to fibronectin fragment Fn9-10 (Origen electrochemiluminescence); details: recombinant human α5β1 vs Fn9-10 ligand; geometric mean where tested more than once
Text: (a) In Vitro Binding Assay
The assay determined the ability of compounds to inhibit binding of α5β1 integrin to a cognate ligand, a fragment of human fibronectin. The assay used Origen technology (IGEN International) to measure the compound activity. Briefly, α5β1 integrin was coated onto epoxy-paramagnetic beads (Dynal Biotech UK, Bromborough, Wirral, CH62 3QL, UK, Catalogue No 140.11) and biotinylated-fibronectin ligand was coupled to strepatividin labeled Tag-NHS-Ester (BioVeris Corporation, Witney, Oxfordshire, OX28 4GE, UK, Catalogue No 110034). The ruthenium-labeled tag emits an electrochemiluminescence signal upon stimulation which is detected by the Origen reader. Thus, interaction of integrin and ligand causes association of bead and tag, and the resulting electrochemiluminescence signal reflects the level of integrin interaction with fibronectin.
20 μg of recombinant human α5β1 was coated onto 4×10(7) epoxy-paramagnetic beads according to manufacturers instructions at 4° C. for 24 hours. Integrin coating and corresponding activity was subsequently measured for each batch but typically, 25 ng of coated protein was used per assay well.
A DNA fragment encoding the domains 9-10 (amino-acids 1325-1509) of human fibronectin (Swiss-Prot Accession No. P02751) was isolated from cDNA libraries using standard molecular biology and PCR cloning techniques. The cDNA fragment was sub-cloned into a pT73.3 expression vector containing a GST-epitope tag (developed at AstraZeneca; Bagnall et al., Protein Expression and Purification, 2003, 27: 1-11). Following expression in E. coli, the expressed protein, termed Fn9-10, was purified using the GST-tag using standard purification techniques. The recombinant Fn9-10 was subsequently biotinylated using a EZ-link Sulfo-NHS-LC-Biotinylation kit (Perbio Science UK Ltd., Cramlington, Northumberland, NE23 1WA, UK, Catalogue No. 21335) and made to give a final concentration of approximately 1 mg/ml. Tag-NHS-Ester was labeled with streptavidin by incubation at room temperature following manufacturers instructions and buffer-exchanged into PBS to give a concentration of 0.5 mg/ ml. Immediately prior to the assay, biotinylated-Fn9-10 and Streptavidin-labeled Tag were diluted in Assay Buffer to give a final concentrations of 0.6 ug/ml and 1.5 ug/ml respectively. The Fn9-10 and Tag solutions were then mixed together in equal volumes and incubated on ice for at least 30 minutes prior to the assay.
Test compounds were prepared as 10 mM stock solutions in DMSO (Sigma-Aldrich Company Ltd, Gillingham, Dorset SP8 4XT Catalogue No. 154938) and serially diluted with 4% DMSO to give a range of test concentrations at ×4 required final concentration. Aliquots (20 μl) of each compound dilution were placed into each well of a 384-well round bottomed polypropylene plate (Matrix Technologies, Wilmslow, Cheshire, SK9 3LP, Catalogue No. 4340 384). Each plate also contained control wells: maximum signal was created using wells containing 20 μl of 4% DMSO, and minimum signal corresponding to no binding was created using wells containing 20 μl of 80 mM EDTA (Sigma Catalogue No. E7889).
For the assay, 25 ng(20 ul) of a5b1-bead suspension and 40 μl of the Fn9-10/Tag pre-incubated solution were added to each well containing 20 μl of compound or control solution. Assay plates were then incubated at room temperature for a minimum of 6 hours before being analysed on an Origen plate reader. The minimum value was subtracted from all values, and the signal was plotted against compound concentration to generate IC50 data.
The data in the above table was generated in an assay substantially as described above in relation to Binding Assay (a). Some of the compounds shown in the table were tested more than once in the assay. For those compounds the IC50 value shown is the geometric mean of the measured IC50 values. […]

Chain of α5β1 integrin (P08648 42-894 limits assumed): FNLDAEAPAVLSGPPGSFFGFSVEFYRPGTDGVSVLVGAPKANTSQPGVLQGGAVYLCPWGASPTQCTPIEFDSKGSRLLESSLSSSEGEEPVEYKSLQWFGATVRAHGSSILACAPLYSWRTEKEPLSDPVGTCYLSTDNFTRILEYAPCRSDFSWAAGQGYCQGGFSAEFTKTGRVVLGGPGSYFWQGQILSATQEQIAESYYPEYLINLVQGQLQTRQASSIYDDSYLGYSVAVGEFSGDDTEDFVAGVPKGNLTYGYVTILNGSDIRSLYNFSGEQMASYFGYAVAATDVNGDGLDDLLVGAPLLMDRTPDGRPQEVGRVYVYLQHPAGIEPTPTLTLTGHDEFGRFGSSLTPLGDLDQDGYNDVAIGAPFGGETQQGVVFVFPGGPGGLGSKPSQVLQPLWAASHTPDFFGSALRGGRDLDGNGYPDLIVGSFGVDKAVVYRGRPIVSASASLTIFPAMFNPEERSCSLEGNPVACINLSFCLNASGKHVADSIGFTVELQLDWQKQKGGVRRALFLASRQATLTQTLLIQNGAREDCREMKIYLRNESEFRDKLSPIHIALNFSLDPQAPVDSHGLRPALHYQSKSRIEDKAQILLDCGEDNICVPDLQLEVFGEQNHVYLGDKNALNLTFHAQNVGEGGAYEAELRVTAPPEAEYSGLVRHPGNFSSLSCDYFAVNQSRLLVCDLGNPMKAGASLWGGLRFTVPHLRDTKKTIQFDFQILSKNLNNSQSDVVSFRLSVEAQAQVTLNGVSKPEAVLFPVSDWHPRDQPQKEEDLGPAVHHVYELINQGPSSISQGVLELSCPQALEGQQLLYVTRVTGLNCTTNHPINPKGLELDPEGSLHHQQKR
Chain of α5β1 integrin (P08648 895-1049 partner limits assumed): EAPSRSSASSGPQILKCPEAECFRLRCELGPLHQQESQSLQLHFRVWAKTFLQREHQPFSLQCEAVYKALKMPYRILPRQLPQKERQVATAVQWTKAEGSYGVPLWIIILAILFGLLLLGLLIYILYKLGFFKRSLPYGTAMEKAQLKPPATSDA
Chain of α5β1 integrin (P05556 21-798): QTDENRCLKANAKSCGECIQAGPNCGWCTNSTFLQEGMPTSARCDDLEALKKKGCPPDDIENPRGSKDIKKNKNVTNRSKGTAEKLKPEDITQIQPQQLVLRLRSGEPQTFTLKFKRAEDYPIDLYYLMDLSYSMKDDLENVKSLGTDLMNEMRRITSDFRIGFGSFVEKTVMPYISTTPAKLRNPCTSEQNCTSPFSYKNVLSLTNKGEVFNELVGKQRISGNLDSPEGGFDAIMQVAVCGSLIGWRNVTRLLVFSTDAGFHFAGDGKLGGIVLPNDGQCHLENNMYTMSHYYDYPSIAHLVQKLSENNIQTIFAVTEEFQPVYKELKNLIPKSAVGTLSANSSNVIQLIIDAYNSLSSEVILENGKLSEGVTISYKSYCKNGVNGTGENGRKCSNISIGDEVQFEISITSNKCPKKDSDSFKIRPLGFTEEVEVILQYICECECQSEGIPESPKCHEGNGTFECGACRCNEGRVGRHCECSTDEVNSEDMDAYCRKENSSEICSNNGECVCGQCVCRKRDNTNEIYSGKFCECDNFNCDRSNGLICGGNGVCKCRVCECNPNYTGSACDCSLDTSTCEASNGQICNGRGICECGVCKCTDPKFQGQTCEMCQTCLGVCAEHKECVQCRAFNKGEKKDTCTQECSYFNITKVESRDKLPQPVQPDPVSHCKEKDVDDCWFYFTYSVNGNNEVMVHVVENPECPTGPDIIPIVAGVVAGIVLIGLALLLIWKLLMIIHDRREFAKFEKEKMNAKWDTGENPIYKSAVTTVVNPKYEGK

IC50 [nM] | Compound
66 | CNc1cccc(CCOc2ccc(C[C@H](NC(=O)[C@H](CC(C)C)NC(=O)c3ccccc3)C(=O)O)cc2)n1 [Example 1.4, N-benzoylleucyl-O-{2-[6-(methylamino)pyridin-2-yl]ethyl}-L-tyrosine]
45 | CNc1cccc(CCOc2ccc(C[C@H](NC(=O)CCc3ccccc3)C(=O)O)cc2)n1 [Example 1.21, O-{2-[6-(methylamino)pyridin-2-yl]ethyl}-N-(3-phenylpropanoyl)-L-tyrosine]
73 | CNc1cccc(CCOc2ccc(C[C@H](NC(=O)C(C)C)C(=O)O)cc2)n1 [Example 1.11, N-isobutyryl-O-{2-[6-(methylamino)pyridin-2-yl]ethyl}-L-tyrosine]
608 | CNc1cccc(CCOc2ccc(C[C@H](NC(=O)C3CC3)C(=O)O)cc2)n1 [Example 1.18, N-(cyclopropylcarbonyl)-O-{2-[6-(methylamino)pyridin-2-yl]ethyl}-L-tyrosine]
7 | CNc1cccc(CCOc2ccc(C[C@H](NC(=O)C3CCCCCC3)C(=O)O)cc2)n1 [Example 1.14, N-(cycloheptylcarbonyl)-O-{2-[6-(methylamino)pyridin-2-yl]ethyl}-L-tyrosine]
215 | CNc1cccc(CCOc2ccc(C[C@H](NC(=O)Cc3ccccc3)C(=O)O)cc2)n1 [Example 1.22, O-{2-[6-(methylamino)pyridin-2-yl]ethyl}-N-(phenylacetyl)-L-tyrosine]
235 | CNc1cccc(CCOc2ccc(C[C@H](NC(=O)Cc3ccccn3)C(=O)O)cc2)n1 [Example 1.25, O-{2-[6-(methylamino)pyridin-2-yl]ethyl}-N-(pyridin-2-ylacetyl)-L-tyrosine]
287 | CNc1cccc(CCOc2ccc(C[C@H](NC(=O)Cc3ccncc3)C(=O)O)cc2)n1 [Example 1.27, O-{2-[6-(methylamino)pyridin-2-yl]ethyl}-N-(pyridin-4-ylacetyl)-L-tyrosine]
116 | CCC(=O)N[C@@H](Cc1ccc(OCCc2cccc(NC)n2)cc1)C(=O)O [Example 1.9, O-{2-[6-(methylamino)pyridin-2-yl]ethyl}-N-propionyl-L-tyrosine]
45 | CNc1cccc(CCOc2ccc(C[C@H](NC(=O)C(c3ccccc3)c3ccccc3)C(=O)O)cc2)n1 [Example 1.24, N-(diphenylacetyl)-O-{2-[6-(methylamino)pyridin-2-yl]ethyl}-L-tyrosine]
7 | CNc1cccc(CCOc2ccc(C[C@H](NC(=O)C3CCCCC3C)C(=O)O)cc2)n1 (stereo partly drawn) [Example 1.2, O-{2-[6-(methylamino)pyridin-2-yl]ethyl}-N-[(2-methylcyclohexyl)carbonyl]-L-tyrosine]
2 | CNc1cccc(CCOc2ccc(C[C@H](NC(=O)C(C)(C)C(=O)N3CCCC3)C(=O)O)cc2)n1 [Example 1.5, N-(2,2-dimethyl-3-oxo-3-pyrrolidin-1-ylpropanoyl)-O-{2-[6-(methylamino)pyridin-2-yl]ethyl}-L-tyrosine]
49 | CNc1cccc(CCOc2ccc(C[C@H](NC(=O)C3CCC3)C(=O)O)cc2)n1 [Example 1.17, N-(cyclobutylcarbonyl)-O-{2-[6-(methylamino)pyridin-2-yl]ethyl}-L-tyrosine]
5 | CNc1cccc(CCOc2ccc(C[C@H](NC(=O)C3(C)CCCCC3)C(=O)O)cc2)n1 [Example 1.1, O-{2-[6-(methylamino)pyridin-2-yl]ethyl}-N-[(1-methylcyclohexyl)carbonyl]-L-tyrosine]
179 | CCCCCC(=O)N[C@@H](Cc1ccc(OCCc2cccc(NC)n2)cc1)C(=O)O [Example 1.10, N-hexanoyl-O-{2-[6-(methylamino)pyridin-2-yl]ethyl}-L-tyrosine]
29 | CNc1cccc(CCOc2ccc(C[C@H](NC(=O)[C@@H](C)OC)C(=O)O)cc2)n1 [Example 1.19, N-[(2R)-2-methoxypropanoyl]-O-{2-[6-(methylamino)pyridin-2-yl]ethyl}-L-tyrosine]
< 1 | CC1CCCCC1C(=O)N[C@@H](Cc1ccc(OCCc2ccc3c(n2)NCCC3)cc1)C(=O)O (stereo partly drawn) [Example 2.2, N-[(2-methylcyclohexyl)carbonyl]-O-[2-(5,6,7,8-tetrahydro-1,8-naphthyridin-2-yl)ethyl]-L-tyrosine]
11 | CC1(C(=O)N[C@@H](Cc2ccc(OCCc3ccc4c(n3)NCCO4)cc2)C(=O)O)CCCCC1 [Example 5.1, O-[2-(3,4-dihydro-2H-pyrido[3,2-b][1,4]oxazin-6-yl)ethyl]-N-[(1-methylcyclohexyl)carbonyl]-L-tyrosine]
34 | CNc1cccc(CCOc2ccc(C[C@H](NC(=O)C(C)(C)C)C(=O)O)cc2)n1 [Example 1.13, N-(2,2-dimethylpropanoyl)-O-{2-[6-(methylamino)pyridin-2-yl]ethyl}-L-tyrosine]
